Here are results for five compounds from ChEMBL document CHEMBL3430912, “GSK Tres Cantos Anti-Kinetoplastid Screening (TCAKS) Data”.

For orientation: IC50 means the concentration that gives 50% inhibition.

Series [1] relates to Trypanosoma cruzi. Briefly: GSK_TCAKS: pIC50 Trypanosoma cruzi viability assay using beta-GAL activity. This assay was run at single shot at 5uM compound concentration per well. The biological reagents consisted of NIH-3T3 host cells and trypomastigotes parasitic cells; both cell types were set to a 3.3 * 10^5 cells/mL dilution in assay DMEM by means of a CASY cell counter device using a 60um capillary. 6 uL of the mixture were dispensed per well (about 1 * 10^3 host-cells and 1 * 10^3 parasites) with a Multidrop Combi dispenser. […] In all wells, the percentage of DMSO never exceeded 0.5%. Plates incubated for four days at 37C, 5% CO2. The substrate used for the assay fluorescence intensity (FLINT) readout was resorufin-beta-D-galactopiranoside (Sigma-Aldrich) at 5uM per well. It was diluted in PBS supplemented with the soft detergent Igepal (Fluka). The following applies: Tulahuen, NIH3T3. Format: functional, organism-based, Mus musculus.

Series [2] concerns Leishmania donovani. Kind of series: GSK_TCAKS: pIC50 Leishmania donovani viability assay using fluorescence intensity. Assay plates (1536-well) were prepared by adding 30nL per well of compound. For single shot assay, the final compound concentration was 5uM. […] Briefly, eGFP LdBOB axenic amastigotes were harvested, fixed and counted in a CASY cell counter (Roche-Applied Science). A final concentration of 1.5 * 10^5 cells per well were prepared in amastigote media containing 500 U/mL penicillin/streptomycin (Invitrogen) and 6uL was dispensed to each experimental well using a Multidrop Combi dispenser (Thermo Scientific). 6uL of assay media was dispensed to control columns used as reference for 100% compound response. Following incubation for 72 h at 37C, 5% CO2, 2 uL of resazurin was added to each well at a final concentration of 0.5 mM in phosphate buffered saline (PBS) with IGEPAL (Sigma-Aldrich), 0.05% (v/v). Format: functional, organism-based. A general note: Resazurin is reduced to fluorescent resorufin, in cell work by metabolically active cells.

Series [3] addresses Sterol 14-alpha demethylase (Trypanosoma cruzi (strain CL Brener), UniProt Q7Z1V1). Kind of series: GSK_TCAKS: pIC50 CYP51 from Trypanosoma cruzi. The class given is functional.
Series [4] has as its system Leishmania donovani. Briefly: GSK_TCAKS: pIC50 Leishmania donovani Imaging: Amastigotes/Macrophages. Assay plates (384-well) were prepared by adding 250nL of compound to each well. For single shot assay, the final compound concentration was 5 uM. […] Automated image analysis was performed with a script developed on Acapella High Content Imaging and Analysis Software (PerkinElmer). Output: Average number of amastigotes per macrophage cell were reported for each well. Format: functional, organism-based, Homo sapiens. The settings on record: THP-1.

Series [5] deals with Leishmania donovani. Briefly: GSK_TCAKS: pIC50 Leishmania donovani Imaging: THP-1 Host Macrophages. Assay plates (384-well) were prepared by adding 250nL of compound to each well. For single shot assay, the final compound concentration was 5 uM. […] Automated image analysis was performed with a script developed on Acapella High Content Imaging and Analysis Software (PerkinElmer). Output: THP-1 cell count were reported for each well. The class given is functional, organism-based, Homo sapiens.

Series [6] concerns Trypanosoma brucei brucei. Briefly: GSK_TCAKS: pIC50 Trypanosoma brucei viability assay using luminiscence. Assay plates (1536-well) were prepared. T. brucei cultures were harvested and counted in a CASY cell counter. A parasite suspension was prepared at a final concentration of 5 * 10^4 cells/mL in complete HMI9 medium and 6uL was dispensed to all wells containing compounds using a Multidrop Combi dispenser. 6uL of HMI9 media with 0.4% DMSO were dispensed to control columns. Plates were incubated for 24 h at 37C, 5% CO2 then tempered for 10 min at room temperature. ATP content was quantified by adding 4 uL of CellTiter-Glo Reagent (Promega) according to the manufacturer's instructions. Luminescence was measured using a ViewLux. The settings on record: Lister 427, CASY. Format: functional, organism-based. (In general: ATP-based viability assays read luminescence as a measure of living cells.)

Series [7] deals with Trypanosoma cruzi. Briefly: (§1) GSK_TCAKS: pIC50 Trypanosoma cruzi Imaging: Infected Cells. […] Cells were then washed once with PBS before infection. T. cruzi trypomastigotes, collected at days 5 to 8 after infection from LLC-MK2 parasite infected cultures, were allowed to swim out for 4h at 37C from a centrifuged pellet (2,500 rpm/10 min/room temperature). Trypomastigotes were then collected and counted in a CASY Cell Counter. Trypomastigotes, in supplemented DMEM, were added to H9c2 cultures in a multiplicity of infection of 1 and incubated for 18 h. Cells were washed once with PBS before incubation of the infected H9c2 monolayer with trypsin (Life-Technologies) to detach cells from the flask. Cells were counted in a CASY Cell Counter using a 150 um capillary and their density set at 5 * 10^4 cells per mL in supplemented assay DMEM. Infected H9c2 were dispensed into 384-well poly-lysine coated assay plates at 50uL per well using a Multidrop Combi dispenser. After seeding them, the plates were incubated at 37C, 5% CO2 for 72h. Cultures were then fixed and stained by addition of 50 uL of a solution containing 8% formaldehyde and 4 uM DRAQ5 DNA dye (BioStatus, UK) per well. […] Five images were collected per well for reliable statistical analysis. Automated image analysis was performed with a script developed on Acapella High Content Imaging and Analysis Software (PerkinElmer). Output: percentage of infected cells per well as a second infection marker. Format: functional, organism-based, Rattus norvegicus. The settings on record: H9c2, 4 h.

Series [8] concerns Trypanosoma cruzi. The description is as §1, with “H2C9” for “Trypanosoma cruzi”, “H9c2 Host Cardiomyocytes.” for “Infected Cells.”, “Number” for “percentage”, “H9c2 Host Cardiomyocytes nuclei to determine drug-related cytotoxicity.” for “infected cells per well as a second infection marker.”. The following applies: H9c2, 4 h. Format: functional, organism-based, Rattus norvegicus.

The nature of series [9]: GSK_TCAKS: pIC50 HepG2 human cell line viability assay using luminiscence. […] Seeding density was checked to ensure that new mono-layers were not more than 50% confluent at the time of harvesting. Cell suspension was added to 500 mL of the same medium at a final density of 1.2 * 10^5 cells/mL. This cell suspension was dispensed (25 uL, 3000 cells per well) into 384-well clear-bottom plates using a Multidrop Combi dispenser. Prior to addition of the cell suspension, the screening compounds (250 nL) were pre-dispensed into the plates with an Echo liquid handler. Plates were incubated for 48 h at 37C, 5% CO2. After incubation, plates equilibrated at room temperature for 30 min before proceeding to develop the luminescent signal. The signal developer, CellTiter-Glo Reagent, was allowed to equilibrate at room temperature for 30 min and added to the plates (25uL per well) using a Multidrop Combi dispenser. Plates were left for 10 min at room temperature for stabilization and then read using a ViewLux. The class given is toxicity, cell-based.

In series [10] the test system is Trypanosoma cruzi. Kind of series: GSK_TCAKS: pIC50 Trypanosoma cruzi Imaging: Amastigotes/Cell. […] Cells were then washed once with PBS before infection. T. cruzi trypomastigotes, collected at days 5 to 8 after infection from LLC-MK2 parasite infected cultures, were allowed to swim out for 4h at 37C from a centrifuged pellet (2,500 rpm/10 min/room temperature). Trypomastigotes were then collected and counted in a CASY Cell Counter. Trypomastigotes, in supplemented DMEM, were added to H9c2 cultures in a multiplicity of infection of 1 and incubated for 18 h. Cells were washed once with PBS before incubation of the infected H9c2 monolayer with trypsin (Life-Technologies) to detach cells from the flask. Cells were counted in a CASY Cell Counter using a 150 um capillary and their density set at 5 * 10^4 cells per mL in supplemented assay DMEM. Infected H9c2 were dispensed into 384-well poly-lysine coated assay plates at 50uL per well using a Multidrop Combi dispenser. After seeding them, the plates were incubated at 37C, 5% CO2 for 72h. Cultures were then fixed and stained by addition of 50 uL of a solution containing 8% formaldehyde and 4 uM DRAQ5 DNA dye (BioStatus, UK) per well. […] Five images were collected per well for reliable statistical analysis. Automated image analysis was performed with a script developed on Acapella High Content Imaging and Analysis Software (PerkinElmer). Output: number of amastigotes per cell as infection level measurement. The following applies: H9c2, 4 h. Format: functional, organism-based, Rattus norvegicus.

In series [11] the test system is Trypanosoma brucei brucei. Kind of series: GSK_TCAKS: pIC50 Trypanosoma brucei viability assay using fluorescence intensity. Assay plates (1536-well) were prepared by dispensing 25nL of compound solution per well using an Echo acoustic dispenser (Labcyte). Format: functional, organism-based. The settings on record: Lister 427, 2 h.
The test system of series [12] is Leishmania donovani. Briefly: GSK_TCAKS: pIC50 Leishmania donovani Imaging: Infected Macrophages. Assay plates (384-well) were prepared by adding 250nL of compound to each well. For single shot assay, the final compound concentration was 5 uM. […] Automated image analysis was performed with a script developed on Acapella High Content Imaging and Analysis Software (PerkinElmer). Output: Percent of infected macrophage cells were reported for each well. Format: functional, organism-based, Homo sapiens. The settings on record: THP-1.

Sterol 14-alpha demethylase, sequence (Q7Z1V1 whole entry): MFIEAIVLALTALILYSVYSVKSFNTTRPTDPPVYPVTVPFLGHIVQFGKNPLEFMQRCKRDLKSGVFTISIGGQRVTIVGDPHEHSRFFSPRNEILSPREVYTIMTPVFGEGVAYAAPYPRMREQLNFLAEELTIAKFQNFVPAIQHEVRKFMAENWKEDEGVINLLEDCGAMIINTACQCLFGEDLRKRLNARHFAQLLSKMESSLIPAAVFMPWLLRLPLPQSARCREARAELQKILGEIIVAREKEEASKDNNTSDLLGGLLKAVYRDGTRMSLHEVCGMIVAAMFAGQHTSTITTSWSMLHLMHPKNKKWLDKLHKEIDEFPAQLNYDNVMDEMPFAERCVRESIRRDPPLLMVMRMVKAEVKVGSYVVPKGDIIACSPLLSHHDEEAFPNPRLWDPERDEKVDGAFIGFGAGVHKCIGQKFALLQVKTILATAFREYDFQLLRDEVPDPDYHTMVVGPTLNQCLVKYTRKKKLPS

On to `CCOc1ccc(CC(=O)N2c3ccccc3CC2C(=O)NC)cc1` (stereo not given), for which the IC50 was > 50.1 µM in [1]; > 50.1 µM in series [2]; > 100 µM in [3]; > 50.1 µM in series [4]; > 50.1 µM in series [5]; 501 nM in series [6]. Further, the IC50 was > 50100 nM in [7]; > 50.1 µM in series [8]; > 50100 nM in [10]; 501 nM in [11]; > 50.1 µM in [12]. For the same compound, the IC50 at 48 h in [9] was > 100 µM.
Turning to `O=C(CSc1nnc2ccc(-c3ccc(F)cc3)nn12)N1CCCCC1`, the IC50 in series [1] is 2.51 µM; in series [2], > 50.1 µM; in [3], > 100 µM; in series [4] it was > 50.1 µM; in series [5] it was 6.31 µM; in series [6] it was 501 nM. Also, the IC50 is 2000 nM in [7]; > 50.1 µM in [8]; 1000 nM in series [10]; 398 nM in series [11]; > 50.1 µM in series [12]. For the same compound, the IC50 at 48 h in series [9] was > 100 µM.
For the compound `CC(C)(C)CC(=O)NCCc1csc(-c2ccc(F)cc2)n1`, the IC50 in series [1] was 1.26 µM; in [2], > 50.1 µM; in series [3], 20 µM; in series [4] it was 15.8 µM; in series [5], 15.8 µM; in [6], 501 nM. Further, the IC50 in series [7] is 1000 nM; in series [8] it was > 50.1 µM; in series [10] it was 794 nM; in [11] it was 631 nM; in series [12], 31.6 µM. The IC50 at 48 h in series [9] is > 100 µM.
As to `O=C(NC(CO)c1ccc(F)cc1)c1ccc(-c2c[nH]c3ncccc23)s1` (stereo not given), the IC50 in series [1] was 10 µM; in series [2], 31.6 µM; in [3], 1.26 µM; in series [4], 20 µM; in [5], 10 µM; in [6] it was 794 nM. Besides, the IC50 in series [7] is 15800 nM; in [8] it was 3.98 µM; in series [10] it was 12600 nM; in [11], 251 nM; in series [12], 25.1 µM. The compound also gave an IC50 at 48 h in series [9] of 39.8 µM.
Turning to `Nc1nc(-c2ccccc2)cc(-c2nc3cccnc3[nH]2)n1`, the IC50 in series [1] was 3.16 µM; in series [2], 3.98 µM; in [3], > 100 µM; in series [4], 2.51 µM; in [5] it was > 50.1 µM; in [6], 15800 nM. Moreover, the IC50 in series [7] is 2000 nM; in [8], 12.6 µM; in series [10] it was 1580 nM; in series [11], 10000 nM; in [12], 2.51 µM. In series [9], this compound had an IC50 at 48 h of 39.8 µM.
